In the test the target is T1, nuclear factor-kappa B (NF-kB)-inducing kinase (NIK) (Homo sapiens, UniProt Q99558).
T1 construct: made in house; host or cells: baculovirus-infected insect cells
T1 sequence (Q99558 whole entry): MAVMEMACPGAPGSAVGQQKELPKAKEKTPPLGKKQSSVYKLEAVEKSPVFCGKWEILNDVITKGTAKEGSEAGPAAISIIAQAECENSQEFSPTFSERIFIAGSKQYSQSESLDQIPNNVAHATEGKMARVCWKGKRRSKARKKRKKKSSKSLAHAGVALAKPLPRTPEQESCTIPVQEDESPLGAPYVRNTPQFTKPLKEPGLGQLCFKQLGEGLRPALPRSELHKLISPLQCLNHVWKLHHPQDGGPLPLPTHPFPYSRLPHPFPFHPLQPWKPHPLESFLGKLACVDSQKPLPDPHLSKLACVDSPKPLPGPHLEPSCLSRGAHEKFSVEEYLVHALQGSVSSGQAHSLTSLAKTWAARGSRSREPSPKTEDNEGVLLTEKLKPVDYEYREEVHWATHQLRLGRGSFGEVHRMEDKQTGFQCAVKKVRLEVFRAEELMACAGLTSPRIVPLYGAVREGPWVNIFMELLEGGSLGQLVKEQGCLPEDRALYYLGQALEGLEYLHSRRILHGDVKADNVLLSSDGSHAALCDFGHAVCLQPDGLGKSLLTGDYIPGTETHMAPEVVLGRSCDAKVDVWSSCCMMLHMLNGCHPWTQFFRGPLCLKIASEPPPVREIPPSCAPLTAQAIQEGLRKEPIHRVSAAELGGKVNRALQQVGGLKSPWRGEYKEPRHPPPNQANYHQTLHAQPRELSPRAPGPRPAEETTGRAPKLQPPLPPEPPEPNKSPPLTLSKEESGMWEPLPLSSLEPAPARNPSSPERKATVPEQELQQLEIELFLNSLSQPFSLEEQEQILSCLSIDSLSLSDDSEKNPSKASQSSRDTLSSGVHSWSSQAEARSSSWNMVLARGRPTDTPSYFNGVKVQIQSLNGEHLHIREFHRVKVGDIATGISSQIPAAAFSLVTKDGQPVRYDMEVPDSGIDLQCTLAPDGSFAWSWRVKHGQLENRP
Kind of test: NIK Enzyme Inhibition Assay (Transcreener ADP assay). The conditions noted are these: purified NIK 0.2-1 nM, 10 uM ATP, fluorescence polarization, Morrison's quadratic equation; read-out: inhibitory value (Ki) for NIK. Type of test: biochemical. (In fluorescence polarisation assays a small probe gives low polarisation when free and higher when bound to something large.)
In general, Ki refers to the dissociation constant of the complex between target and ligand, obtained from inhibition or displacement. Take `Cn1ccc(C(C)(O)C#Cc2ccc3c(C(C)(C)O)nn(-c4ccnc(N)n4)c3c2)n1` (stereo not shown) [Example T1.1-95, 4-[1-(2-aminopyrimidin-4-yl)-3-(1-hydroxy-1-methyl-ethyl)indazol-6-yl]-2-(1-methylpyrazol-3-yl)but-3-yn-2-ol]: the inhibition constant Ki came out at 87 nM.
To `CC(C)(O)C#Cc1ccc2nc(OC3COC3)n(-c3ccnc(N)n3)c2c1` [Example T1.1-96, 4-[3-(2-aminopyrimidin-4-yl)-2-(oxetan-3-yloxy)benzimidazol-5-yl]-2-methyl-but-3-yn-2-ol] belongs 100 nM; to `Cc1cc(C(C)(O)C#Cc2ccc3nc(OC4CN(CCO)C4)n(-c4ccnc(N)n4)c3c2)no1` (stereo not shown) [Example T1.1-97, 4-[3-(2-aminopyrimidin-4-yl)-2-[1-(2-hydroxyethyl)azetidin-3-yl]oxy-benzimidazol-5-yl]-2-(5-methyl-isoxazol-3-yl)but-3-yn-2-ol], 102 nM.
`Cc1nn(-c2ccnc(N)n2)c2cc(C#CC(C)(O)c3ncc[nH]3)ccc12` (stereo not shown) [Example T1.1-98, 4-[1-(2-aminopyrimidin-4-yl)-3-methyl-indazol-6-yl]-2-(1H-imidazol-2-yl)but-3-yn-2-ol]: the Ki stood at 111 nM.
For `Cc1nc2ccc(C#CC(C)(O)CC3CC3)cc2n1-c1ncnc(N)n1` (stereo not shown) [Example T1.1-99, 4-[3-(4-amino-1,3,5-triazin-2-yl)-2-methyl-benzimidazol-5-yl]-1-cyclopropyl-2-methyl-but-3-yn-2-ol], the Ki is 129 nM.
As to `Cc1nc2ccc(C#CC(C)(O)CO)cc2n1-c1ncnc(N)n1` (stereo not shown) [Example T1.1-100, 4-[3-(4-amino-1,3,5-triazin-2-yl)-2-methyl-benzimidazol-5-yl]-2-methyl-but-3-yne-1,2-diol], the Ki is 130 nM.
Next, `CNc1nccc(-n2ncc3ccc(C#C[C@@](C)(O)c4cc(C)on4)cc32)n1` [Example T1.1-101, (2R)-4-[1-[2-(methylamino)pyrimidin-4-yl]indazol-6-yl]-2-(5-methylisoxazol-3-yl)but-3-yn-2-ol]: 150 nM.
As for `Cc1nn(-c2ccnc(N)n2)c2cc(C#CC(C)(O)C(=O)N3CC(O)C3)ccc12` (stereo not shown) [Example T1.1-102, 4-[1-(2-aminopyrimidin-4-yl)-3-methyl-indazol-6-yl]-2-hydroxy-1-(3-hydroxyazetidin-1-yl)-2-methyl-but-3-yn-1-one], the inhibition constant Ki turned out to be 310 nM.
As to `Cc1nn(-c2ccnc(N)n2)c2cc(C#CC(C)(O)C(=O)N(C)C)ccc12` (stereo not shown) [Example T1.1-103, 4-[1-(2-aminopyrimidin-4-yl)-3-methyl-indazol-6-yl]-2-hydroxy-N,N,2-trimethyl-but-3-ynamide], the Ki was determined as 315 nM.
For `Cc1cc(C(C)(O)C#Cc2ccc3nc(C(=O)N4CCCC4)n(-c4ccnc(N)n4)c3c2)no1` (stereo not shown) [Example T1.1-104, [1-(2-aminopyrimidin-4-yl)-6-[3-hydroxy-3-(5-methylisoxazol-3-yl)but-1-ynyl]benzimidazol-2-yl]-pyrrolidin-1-yl-methanone], the inhibition constant Ki amounted to 342 nM.
Take `Cc1nc2ccc(C#CC3(O)CCCCC3)cc2n1-c1ncnc(N)n1` [Example T1.1-106, 1-[2-[3-(4-amino-1,3,5-triazin-2-yl)-2-methyl-benzimidazol-5-yl]ethynyl]cyclohexanol]: the Ki was found to be 775 nM.
To `Cc1nc2ccc(C#CC3(CO)CCCC3)cc2n1-c1ncnc(N)n1` [Example T1.1-107, [1-[2-[3-(4-amino-1,3,5-triazin-2-yl)-2-methyl-benzimidazol-5-yl]ethynyl]cyclopentyl]methanol] belongs 913 nM.
As for `CC(O)(C#Cc1ccc2nc(OCCO)n(-c3ccnc(N)n3)c2c1)c1ccc(F)cn1` (stereo not shown) [Example T1.1-108, 4-[3-(2-aminopyrimidin-4-yl)-2-(2-hydroxyethoxy)benzimidazol-5-yl]-2-(5-fluoro-2-pyridyl)but-3-yn-2-ol], the Ki was found to be 1600 nM.
In the case of `Cc1nc2ccc(C#CC(O)C3CC(O)C3)cc2n1-c1ncnc(N)n1` (stereo not shown) [Example T1.1-109, 3-[3-[3-(4-amino-1,3,5-triazin-2-yl)-2-methyl-benzimidazol-5-yl]-1-hydroxy-prop-2-ynyl]cyclobutanol], the Ki turned out to be 1600 nM.
Regarding `Cc1nc2ccc(C#CC3(O)CC4CCC3C4)cc2n1-c1ncnc(N)n1` (stereo not shown) [Example T1.1-110, 2-[2-[3-(4-amino-1,3,5-triazin-2-yl)-2-methyl-benzimidazol-5-yl]ethynyl] norbornan-2-ol], the Ki amounted to 1700 nM.
`Cc1nc2ccc(C#CC(C)(O)c3nc(CO)cs3)cc2n1-c1ncnc(N)n1` (stereo not shown) [Example T1.1-111, 4-[3-(4-amino-1,3,5-triazin-2-yl)-2-methyl-benzimidazol-5-yl]-2-[4-(hydroxy-methyl)thiazol-2-yl]but-3-yn-2-ol]: the inhibition constant Ki amounted to 1700 nM.
As to `Cc1nc2ccc(C#CC(C)(O)c3nc(CC#N)cs3)cc2n1-c1ncnc(N)n1` (stereo not shown) [Example T1.1-112, 2-[2-[3-[3-(4-amino-1,3,5-triazin-2-yl)-2-methyl-benzimidazol-5-yl]-1-hydroxy-1-methyl-prop-2-ynyl]thiazol-4-yl] acetonitrile], the Ki was determined as 1800 nM.
In the case of `Cc1nc2ccc(C#CC3(O)CC(C#N)C3)cc2n1-c1ncnc(N)n1` (stereo not shown) [Example T1.1-113, 3-[2-[3-(4-amino-1,3,5-triazin-2-yl)-2-methyl-benzimidazol-5-yl]ethynyl]-3-hydroxy-cyclobutanecarbonitrile], the Ki was 2400 nM.
Regarding `Cc1nc2ccc(C#CC3(O)CCCOC3)cc2n1-c1ncnc(N)n1` (stereo not shown) [Example T1.1-114, 3-[2-[3-(4-amino-1,3,5-triazin-2-yl)-2-methyl-benzimidazol-5-yl]ethynyl] tetrahydropyran-3-ol], the Ki is 2600 nM.
For the compound `Cc1nc2ccc(C#CC3(O)CC(CO)C3)cc2n1-c1ncnc(N)n1` (stereo not shown) [Example T1.1-115, 1-[2-[3-(4-amino-1,3,5-triazin-2-yl)-2-methyl-benzimidazol-5-yl]ethynyl]-3-(hydroxymethyl)cyclobutanol], the Ki was 3900 nM.
Regarding `Cc1nc2ccc(C#CC3(O)COC3)cc2n1-c1ncnc(N)n1` [Example T1.1-116, 3-[2-[3-(4-amino-1,3,5-triazin-2-yl)-2-methyl-benzimidazol-5-yl]ethynyl] oxetan-3-ol], the Ki is not below 5000 nM.
As to `CN(C)C(=O)c1nn(-c2ccnc(N)n2)c2cc(C#CC3(O)CCn4cncc43)ccc12` (stereo not shown) [Example T1.1-117, 1-(2-aminopyrimidin-4-yl)-6-[2-(7-hydroxy-5,6-dihydropyrrolo[1,2-c]imidazol-7-yl)ethynyl]-N,N-dimethyl-indazole-3-carboxamide], the Ki is not below 5000 nM.
In the case of `Cc1nc2ccc(C#CC(C)(C)CO)cc2n1-c1ncnc(N)n1` [Example T1.1-118, 4-[3-(4-amino-1,3,5-triazin-2-yl)-2-methyl-benzimidazol-5-yl]-2,2-dimethyl-but-3-yn-1-ol], the Ki is not below 5000 nM.
`CNc1ccnc(-n2ncc3ccc(C#CC(C)(O)c4cc(C)on4)cc32)n1` (stereo not shown) [Example T1.1-119, 4-[1-[4-(methylamino)pyrimidin-2-yl]indazol-6-yl]-2-(5-methyl-isoxazol-3-yl)but-3-yn-2-ol]: the Ki is not below 5000 nM.
To `Nc1nccc(-n2ncc3c(F)cc(C#CC4(O)CCCC4)cc32)n1` [Example T1.1-120, 1-[2-[1-(2-aminopyrimidin-4-yl)-4-fluoro-indazol-6-yl]ethynyl] cyclopentanol] belongs not below 5000 nM; to `CC(O)(C#Cc1ccc2c(C(=O)N3CCOCC3)nn(-c3ccnc(N)n3)c2c1)c1ccncn1` (stereo not shown) [Example T1.1-121, [1-(2-aminopyrimidin-4-yl)-6-(3-hydroxy-3-pyrimidin-4-yl-but-1-ynyl)indazol-3-yl]-morpholino-methanone], not below 5000 nM; to `Cc1nc([C@](C)(O)C#Cc2ccc3nc(OCCF)n(-c4ccnc(N)n4)c3c2)no1` [Example T1.1-122, (2R)-4-[3-(2-aminopyrimidin-4-yl)-2-(2-fluoroethoxy)benzimidazol-5-yl]-2-(5-methyl-1,2,4-oxadiazol-3-yl)but-3-yn-2-ol], 0.3 nM.
`CC(O)(C#Cc1ccc2nc(OCCO)n(-c3ccnc(N)n3)c2c1)c1ccc(Cl)cn1` (stereo not shown) [Example T1.1-123, 4-[3-(2-aminopyrimidin-4-yl)-2-(2-hydroxyethoxy)benzimidazol-5-yl]-2-(5-chloro-2-pyridyl)but-3-yn-2-ol]: the Ki was not below 5000 nM.
As to `Cc1nn(-c2ccnc(N)n2)c2cc(C#CC(C)(O)c3nccs3)ccc12` (stereo not shown) [Example T1.1-125, 4-[1-(2-aminopyrimidin-4-yl)-3-methyl-indazol-6-yl]-2-thiazol-2-yl-but-3-yn-2-ol], the Ki came to 1 nM.
As for `Cc1nc2ccc(C#CC(C)(O)Cn3cccn3)cc2n1-c1ncnc(N)n1` (stereo not shown) [Example T1.1-126, 4-[3-(4-amino-1,3,5-triazin-2-yl)-2-methyl-benzimidazol-5-yl]-2-methyl-1-pyrazol-1-yl-but-3-yn-2-ol], the Ki is not below 5000 nM.
Consider `CC(O)(C#Cc1ccc2c(C(=O)N3CCOCC3)nn(-c3ccnc(N)n3)c2c1)c1ncccn1` (stereo not shown) [Example T1.1-130, [1-(2-aminopyrimidin-4-yl)-6-(3-hydroxy-3-pyrimidin-2-yl-but-1-ynyl)indazol-3-yl]-morpholino-methanone], for which the Ki is not below 5000 nM.
Consider `COCCNc1nc2ccc(C#CC(C)(O)c3nc(C)cs3)cc2n1-c1ccnc(N)n1` (stereo not shown) [Example T1.1-131, 4-[3-(2-aminopyrimidin-4-yl)-2-(2-methoxyethylamino)benzimidazol-5-yl]-2-(4-methylthiazol-2-yl)but-3-yn-2-ol], for which the inhibition constant Ki came out at 9 nM.
Turning to `CC(O)(C#Cc1ccc2nc(OCCO)n(-c3ccnc(N)n3)c2c1)c1ccc(Cl)cn1` (stereo not shown) [Example T1.1-133, 4-[3-(2-aminopyrimidin-4-yl)-2-(2-hydroxyethoxy)benzimidazol-5-yl]-2-(5-chloro-2-pyridyl)but-3-yn-2-ol], the inhibition constant Ki turned out to be 0.4 nM.
As to `Cc1nn(-c2ccnc(N)n2)c2cc(C#CC3(O)CCCN(C)C3=O)ccc12` (stereo not shown) [Example T1.1-136, 3-[2-[1-(2-aminopyrimidin-4-yl)-3-methyl-indazol-6-yl]ethynyl]-3-hydroxy-1-methyl-piperidin-2-one], the Ki was determined as 2 nM.

The values are drawn from US8901313B2, “6,5-heterocyclic propargylic alcohol compounds and uses therefor” (Genentech, Inc., priority 2011, dated 2014).
